Entries after “also recorded” stand apart in the source; their conditions may differ.
Key:
[1] = tested on: murine ischemia/reperfusion model of myocardial infarction; assay: Mouse ischemia/reperfusion model, topical capsaicin 15 min prior to coronary occlusion, infarct size; format: in vivo, mice
TRPV1 = target: T1, TRPV1 (Mus musculus, UniProt Q704Y3); assay: Topical capsaicin before ischemia/reperfusion in wild-type versus TRPV1 knock-out mice, infarct size; format: in vivo; settings: capsaicin topically to the abdomen prior to ischemia and reperfusion, compared to TRPVKO mice
T1 construct: data from wild-type mice topically treated with capsaicin administered to the abdomen; from tissue; host or cells: living mice; skin nociceptors (C-fibers) of the abdomen
Description: Infarct size as a percent of risk region is presented on the y-axis. The first bar presents data from wild-type mice topically treated with capsaicin administered to the abdomen prior to surgical induction of ischemia and reperfusion (WT, Capsaicin, hatched bar). The second bar presents data from TRPV 1 knockout mice topically treated with capsaicin administered to the abdomen prior to surgical induction of ischemia and reperfusion (TRPVKO, Capsaicin, dotted bar). The third bar presents data from TRPV 1 knockout mice subjected to sham treatment prior to surgical induction of ischemia and reperfusion (TRPVKO No capsaicin, empty bar).

[2] = tested on: murine ischemia/reperfusion model of myocardial infarction; assay: Topical capsaicin during ischemia or after reperfusion, infarct size; format: in vivo, mice; settings: p<0.01
protein kinase C(PKC) = assay: Chelerythrine before electrical stimulation and ischemia/reperfusion, infarct size; format: in vivo, mice; settings: chelerythrine plus electrical stimulation compared with vehicle alone plus electrical stimulation
Description: FIG. 3C presents data from wild-type mice treated with chelerythrine prior to sham treatment or electrical stimulation followed by the ischemia/reperfusion procedure. Chelerythrine is a relatively selective general protein kinase C(PKC) inhibitor. Most previously described forms of preconditioning or postconditioning require PKC activation in cardiomyocytes. Typically this is indicative of activation and/or repression of specific PKC isoforms in the hearts. Infarct size as a percentage of risk region was assessed and is indicated. The hatched bar presents data from mice treated with chelerythrine and subject to sham treatment (chelerythrine control). The dotted bar presents data from mice treated with vehicle alone and electrically stimulated (vehicle ES). […]
A previously described mouse model of ischemia and reperfusion (I/R) injury in vivo was used (Ren et al. (2004) J. Surg Res. 121(1):120-129; Fan et al (2005)Circulation 111(14):1792-1799; Zhou et al (2007)Cardiovascular Research 75(3) 487-497; and Diwan et a/(2007) J. Clinical Investigation 117(10):2825-2833, herein incorporated by reference in their entirety). […] All mice were continuously monitored by electrocardiography (ECG) (DigiMed Sinus Rhythm Analyzer, Micro-Med Inc), and mice without evidence of ischemia and timely reperfusion were excluded from the studies. […]

[3] = tested on: peripheral C-fiber nociceptors; assay: Lidocaine before remote electrical stimulation and ischemia/reperfusion, infarct size; format: in vivo, mice; settings: 2% lidocaine, 10 μl s.c., prior to electrical stimulation and ischemia; compared with vehicle ES
Procedure: (§1) A previously described mouse model of ischemia and reperfusion (I/R) injury in vivo was used (Ren et al. (2004) J. Surg Res. 121(1):120-129; Fan et al (2005)Circulation 111(14):1792-1799; Zhou et al (2007)Cardiovascular Research 75(3) 487-497; and Diwan et a/(2007) J. Clinical Investigation 117(10):2825-2833, herein incorporated by reference in their entirety). Mice were anesthetized with sodium pentobarbital (90 mg/kg ip), intubated with PE 90 tubing and ventilated using a mouse miniventilator (Harvard Apparatus, Holliston, Mass.). All mice were continuously monitored by electrocardiography (ECG) (DigiMed Sinus Rhythm Analyzer, Micro-Med Inc), and mice without evidence of ischemia and timely reperfusion were excluded from the studies. […]
(§2) Mice were euthanized either 4 or 24 hours after reperfusion and infarct size determination and imaging were performed by previously described methods (Ren et al. (2004) J. Surg Res. 121(1):120-129 and Guo et al (1998) Am J. Physiology 275(4 Pt 2):H1375-1387, herein incorporated by reference in their entirety). […] Infarct size was determined by the method of Fishbein et al (1981) Am Heart J 101(5):593-600, herein incorporated by reference in its entirety. […]

TRPV2 = target: T2, TRPV2 (Mus musculus, UniProt Q9WTR1); assay: Topical probenecid in mouse ischemia/reperfusion model, infarct size; format: in vivo, mice; settings: topical probenecid application versus control animals; p<0.07
T2 construct: mice that received topical probenecid application; from tissue; host or cells: living mice (topical application to skin)
T2 sequence (Q9WTR1 1-756): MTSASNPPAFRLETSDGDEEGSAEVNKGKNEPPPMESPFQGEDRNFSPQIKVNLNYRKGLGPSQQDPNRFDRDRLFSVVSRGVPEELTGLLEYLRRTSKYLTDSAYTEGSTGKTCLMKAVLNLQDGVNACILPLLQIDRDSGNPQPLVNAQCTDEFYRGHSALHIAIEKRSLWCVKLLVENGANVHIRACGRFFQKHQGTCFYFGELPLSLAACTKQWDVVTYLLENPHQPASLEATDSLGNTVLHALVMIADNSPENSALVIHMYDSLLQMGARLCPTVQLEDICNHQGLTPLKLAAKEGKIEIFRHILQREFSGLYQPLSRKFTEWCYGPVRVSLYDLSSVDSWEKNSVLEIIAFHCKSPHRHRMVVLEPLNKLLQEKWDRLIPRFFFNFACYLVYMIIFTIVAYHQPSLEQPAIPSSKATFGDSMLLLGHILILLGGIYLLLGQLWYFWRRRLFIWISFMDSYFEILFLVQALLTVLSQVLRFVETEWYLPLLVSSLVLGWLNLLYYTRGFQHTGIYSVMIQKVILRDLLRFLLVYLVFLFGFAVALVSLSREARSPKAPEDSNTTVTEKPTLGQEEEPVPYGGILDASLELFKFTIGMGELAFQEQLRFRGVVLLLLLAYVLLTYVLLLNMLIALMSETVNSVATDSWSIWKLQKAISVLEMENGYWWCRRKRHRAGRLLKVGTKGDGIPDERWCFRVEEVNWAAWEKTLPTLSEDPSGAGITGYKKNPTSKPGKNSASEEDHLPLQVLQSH
Description: FIG. 11 presents a graph of infarct size as a percent of risk area in mice that received topical probenecid application (empty bars) or sham treatments (hatched bars).
as §1, §2

β-adrenergic receptor = tested on: β-adrenergic receptor; set-up: species or system mice; settings: mouse, in vivo
Procedure: The mice then underwent either sham treatment or electrical stimulation (ES) followed by the ischemia/reperfusion procedure.
A lateral thoracotomy (1.5 cm incision between the second and third ribs was performed to provide exposure of the left anterior descending coronary artery (LAD). Vascular bundles in the vicinity were coagulated using a microcoagulator (Medical Industries Inc, St. Petersburg Fla.). An 8-O nylon suture was placed around the LAD 2-3 mm from the tip of the left auricle and a piece of soft silicon tubing (0.64 mm ID, 1.19 mm OD) was placed over the artery. Coronary occlusion was achieved by tightening and tying the suture. Coronary occlusion was for 45 minutes, unless indicated otherwise. At the end of the occlusion, the suture was untied and left in place. Ischemia was confirmed by visual observation of cyanosis and by continuous ECG monitoring (QRS complex widening, T wave inversion and ST segment changes); reperfusion was confirmed by reversal of these effects. […]

T1 sequence (Q704Y3 whole entry, the tested form may be a part): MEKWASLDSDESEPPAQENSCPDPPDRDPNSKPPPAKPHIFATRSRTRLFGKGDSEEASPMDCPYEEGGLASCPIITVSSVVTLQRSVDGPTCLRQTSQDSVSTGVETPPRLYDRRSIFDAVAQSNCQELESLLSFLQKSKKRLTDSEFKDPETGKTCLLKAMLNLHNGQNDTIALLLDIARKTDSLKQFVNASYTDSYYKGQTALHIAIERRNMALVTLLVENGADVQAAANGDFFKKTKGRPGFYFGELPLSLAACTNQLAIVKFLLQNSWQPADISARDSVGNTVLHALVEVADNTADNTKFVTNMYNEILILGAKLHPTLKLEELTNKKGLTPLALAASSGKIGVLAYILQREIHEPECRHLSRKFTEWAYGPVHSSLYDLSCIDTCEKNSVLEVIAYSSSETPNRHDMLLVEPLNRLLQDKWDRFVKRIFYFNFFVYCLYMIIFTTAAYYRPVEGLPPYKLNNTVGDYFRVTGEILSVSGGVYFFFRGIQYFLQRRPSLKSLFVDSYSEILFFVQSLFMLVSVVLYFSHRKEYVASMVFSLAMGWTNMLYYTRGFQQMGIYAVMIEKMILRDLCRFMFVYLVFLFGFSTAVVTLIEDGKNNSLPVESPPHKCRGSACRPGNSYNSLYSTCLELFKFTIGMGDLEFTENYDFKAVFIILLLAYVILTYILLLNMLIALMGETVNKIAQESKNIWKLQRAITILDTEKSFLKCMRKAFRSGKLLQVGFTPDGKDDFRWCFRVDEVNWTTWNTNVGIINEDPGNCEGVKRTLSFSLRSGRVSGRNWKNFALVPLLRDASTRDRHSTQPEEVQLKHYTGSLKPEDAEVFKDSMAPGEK

COc1cc(CNC(=O)CCCC/C=C/C(C)C)ccc1O [capsaicin, (6E)-N-[(4-Hydroxy-3-methoxyphenyl)methyl]-8-methyl-6-nonenamide]
reduction of infarct size ([1]; remote pre-conditioning, stimulus given 15 minutes prior to the ischemia, 45 min coronary occlusion, versus sham, n=6): 85% | Infarct size as a percent of the risk region ([1]; remote pre-treatment prior to ischemia/reperfusion versus sham, P<0.01): substantial reduction in infarct size | infarct size as a percent of risk region (TRPV1): reduced myocardial infarct size | infarct size as a percent of risk area ([2]; topical capsaicin application after reperfusion (postCON) versus sham): significantly reduces infarct size | infarct size as a percent of risk area ([2]; topical capsaicin application during ischemia (conditioning) versus sham): significantly reduces infarct size

COc1ccc2c(c[n+](C)c3c4cc5c(cc4ccc23)OCO5)c1OC [chelerythrine]
Infarct size as a percentage of risk region (protein kinase C(PKC)): reduced inhibition of ischemia-related tissue damage

CCN(CC)CC(=O)Nc1c(C)cccc1C [lidocaine]
infarct size as a percent of risk region [3]: no significant cardioprotection relative to controls; also recorded: significantly higher percentage of risk region

CCCN(CCC)S(=O)(=O)c1ccc(C(=O)O)cc1 [probenecid]
infarct size as a percent of risk region (TRPV2): significantly reduced

CC(C)NCC(O)COc1cccc2ccccc12 (stereo not drawn) [propanolol]
Infarct size as a percentage of risk region (β-adrenergic receptor): significantly higher
